According to patent publication US20210100246A1, “PYRIDYL-FORMAMIDINES HAVING A FUNGICIDAL ACTIVITY, THEIR AGRONOMIC COMPOSITIONS AND USE THEREOF” (ISAGRO, S.p.A., priority 2017, published 2021):

Tests used:
Puccinia Recondita = assay: Preventive fungicidal activity (5 days) against Puccinia Recondita on wheat; assay type: in vivo; settings: for Activity P5 NT (reduction of leaf area affected, parts developed during the test) / Activity P5 T (reduction of leaf area affected, parts treated directly) / effectiveness in containing the disease (in words): wheat; for Activity P5 NT (reduction of leaf area affected, parts developed during the test): non-treated parts (NT); for effectiveness in containing the disease (in words): summary of Table 4
Description: Determination of the preventive fungicidal activity (5 days) against Puccinia Recondita on wheat.
(§1) Leaves of wheat plants of the Salgemma variety, grown in pots in a conditioned environment at 20° C. and 70% of Relative Humidity (RH) were treated by spraying both sides of the leaves with the compound under examination (see Table 4 hereunder) dispersed in a hydroacetonic solution at 20% by volume of acetone.
After remaining 5 days in a conditioned environment, the plants were sprayed on both sides of the leaves with an aqueous suspension of conidia of Puccinia Recondita (2 mg of inoculum per 1 ml of solution for infection).
After spraying, the plants were kept in a humidity-saturated environment at a temperature ranging from 18 to 24° C. for the incubation period of the fungus (1 day).
At the end of this period, the plants were put in a greenhouse with a relative humidity (RH) of 70% and at a temperature of 18-24° C. for 14 days.
At the end of this period, the external symptoms of the pathogen appeared and it was therefore possible to proceed with the visual evaluation of the intensity of the infection, both on the parts treated directly with the products (T) and on the parts developed during the implementation of the test (NT).
(§2) The fungicidal activity is expressed as a percentage of the reduction, with respect to non-treated seedlings (comparison), in the area of the leaf affected by the disease (100=full effectiveness; 0=zero effectiveness).

wheat seedlings = assay: Phytotoxicity (percentage of leaf necrosis) on wheat seedlings; assay type: in vivo; settings: for Phytotoxicity % N.F. (leaf necrosis): wheat seedlings, scale 0-100; for symptoms of phytotoxicity on the plant (in words): wheat, summary of Table 4
Description: as §1
At the same time, an evaluation of the phytotoxicity was effected (percentage of leaf necrosis) induced on the wheat seedlings by the application of the products: in this case the evaluation scale ranges from 0 (completely healthy plant) to 100 (completely necrotic plant).

Uromyces Appendiculatus = assay: Preventive fungicidal activity (5 days) against Uromyces Appendiculatus on beans; assay type: in vivo
Description: Determination of the preventive fungicidal activity (5 days) against Uromyces Appendiculatus on beans.
(§3) Bean plants cv. Borlotto of Vigevano, grown in pots in a conditioned environment, were treated by spraying both sides with the products under examination in a hydroacetonic solution with 20% by volume of acetone (vol./vol.).
After remaining 5 days in a conditioned environment at 23° C. and 70% of relative humidity, the plants were sprayed on the lower side with an aqueous suspension of spores of Uromyces Appendiculatus (200,000 spores/cc); after remaining 24 hours in a humidity-saturated environment, they were re-transferred to the conditioned environment.
After this period, the external symptoms of the pathogen appeared and it was therefore possible to proceed with the visual evaluation of the intensity of the infection.
as §2

bean seedlings = assay: Phytotoxicity (percentage of leaf necrosis) on bean seedlings; assay type: in vivo; settings: scale 0-100
Description: as §3
At the same time, an evaluation of the phytotoxicity was effected (percentage of leaf necrosis) induced on the bean seedlings by the application of the products: in this case the evaluation scale ranges from 0 (completely healthy plant) to 100 (completely necrotic plant).

[1] = Accelerated stability test of 5% solutions in commercial solvents (54° C., 2 weeks, HPLC); assay type: physicochemical
Description: Stability tests of the compositions containing compounds having formula (I) in a solvent
In order to evaluate the chemical stability of the compounds having Formula (I) in a solvent, 5% solutions were prepared, containing 250 mg of compounds Nr. 1, 17, 39 and 40, dissolved in 4.75 g of various commercial solvents used for the preparation of emulsifiable concentrates.
The resulting solutions were put in an oven at 54° C. for 2 weeks (according to Cipac MT 46.1 update 2012) and then analyzed by means of HPLC in order to verify the concentration of the active ingredient contained therein. The percentage of degradation of the compound having Formula (I) was therefore obtained, after the accelerated stability test.

[2] = solvent ADMA 10 (N,N-dimethyldecanamide)
[3] = solvent Alkamuls T/20 (ethoxylated sorbitan monolaurate)
[4] = solvent CME (rapeseed methyl ester)
[5] = solvent FMPC (N-formylmorpholine and propylene carbonate)
[6] = solvent Green 25 (dimethylsulfoxide, acetophenone, 2-ethylhexyl acetate)
[7] = solvent Purasolv BL (butyl lactate)
[8] = solvent RPDE (dimethyl glutarate, dimethyl succinate, dimethyl adipate)

Row | Structure (SMILES) | percentage of degradation [1, 2] [%] | percentage of degradation [1, 3] [%] | percentage of degradation [1, 4] [%] | percentage of degradation [1, 5] [%] | percentage of degradation [1, 6] [%] | percentage of degradation ([1]; solvent Propylene carbonate) [%] | percentage of degradation [1, 7] [%] | percentage of degradation [1, 8] [%] | Activity P5 NT (reduction of leaf area affected, parts developed during the test) (Puccinia Recondita; 125 ppm) [%] | Activity P5 T (reduction of leaf area affected, parts treated directly) (Puccinia Recondita; 125 ppm) [%] | Activity P5 NT (reduction of leaf area affected, parts developed during the test) (Puccinia Recondita; 250 ppm) [%] | Activity P5 T (reduction of leaf area affected, parts treated directly) (Puccinia Recondita; 250 ppm) [%] | Phytotoxicity % N.F. (leaf necrosis) (wheat seedlings; 125 ppm) [% N.F.] | Phytotoxicity % N.F. (leaf necrosis) (wheat seedlings; 250 ppm) [% N.F.] | effectiveness in containing the disease (in words) (Puccinia Recondita) | symptoms of phytotoxicity on the plant (in words) (wheat seedlings) | Activity P5 (Uromyces Appendiculatus; 30 ppm) [%] | Activity P5 (Uromyces Appendiculatus; 125 ppm) [%] | Phytotoxicity % N.F. (leaf necrosis) (bean seedlings; 30 ppm) [% N.F.] | Phytotoxicity % N.F. (leaf necrosis) (bean seedlings; 125 ppm) [% N.F.] | also measured
1 | CCN(C)C=Nc1cc(Br)c(OCCC(C)C)nc1C [CR1, N-ethyl-N-methyl-N′-[5-bromo-2-methyl-6-(3-methyl-butyloxy)-3-pyridyl]-formamidine, reference compound] |  |  |  |  |  |  |  |  | 20 | 60 | 50 | 80 | 5 | 10 |  |  |  |  |  |  | 
2 | CCN(C)C=Nc1cc(Br)c(SCCC(C)C)nc1C [Compound 5] |  |  |  |  |  |  |  |  | 45 | 85 | 65 | 100 | 0 | 0 | effective in containing the disease | do not show any symptoms of phytotoxicity |  |  |  |  | activity compared with CR1 (in words) (Puccinia Recondita; also at low dosages (125 ppm)): more active
3 | CCCCCCSc1nc(C)c(N=CN(C)CC)cc1C [Compound 17] | 1.57 | 74.78 | 16 | 0.79 | 2.96 | 0 | 100 | 1.93 | 55 | 95 | 65 | 98 | 0 | 0 | effective in containing the disease | do not show any symptoms of phytotoxicity | 100 | 100 | 0 | 0 | 

Continued, in another order:

Row | percentage of degradation [1, 2] [%] | percentage of degradation [1, 3] [%] | percentage of degradation [1, 4] [%] | percentage of degradation [1, 5] [%] | percentage of degradation [1, 6] [%] | percentage of degradation ([1]; solvent Propylene carbonate) [%] | percentage of degradation [1, 7] [%] | percentage of degradation [1, 8] [%] | Structure (SMILES) | Activity P5 NT (reduction of leaf area affected, parts developed during the test) (Puccinia Recondita; 125 ppm) [%] | Activity P5 T (reduction of leaf area affected, parts treated directly) (Puccinia Recondita; 125 ppm) [%] | Activity P5 NT (reduction of leaf area affected, parts developed during the test) (Puccinia Recondita; 250 ppm) [%] | Activity P5 T (reduction of leaf area affected, parts treated directly) (Puccinia Recondita; 250 ppm) [%] | Phytotoxicity % N.F. (leaf necrosis) (wheat seedlings; 125 ppm) [% N.F.] | Phytotoxicity % N.F. (leaf necrosis) (wheat seedlings; 250 ppm) [% N.F.] | effectiveness in containing the disease (in words) (Puccinia Recondita) | symptoms of phytotoxicity on the plant (in words) (wheat seedlings) | Activity P5 (Uromyces Appendiculatus; 30 ppm) [%] | Activity P5 (Uromyces Appendiculatus; 125 ppm) [%] | Phytotoxicity % N.F. (leaf necrosis) (bean seedlings; 30 ppm) [% N.F.] | Phytotoxicity % N.F. (leaf necrosis) (bean seedlings; 125 ppm) [% N.F.] | also measured
4 | 0 | 79.78 | 17.31 | 1.53 | 1.84 | 0.61 | 100 | 1.13 | CCN(C)C=Nc1cc(C)c(SCc2c(F)cccc2F)nc1C [Compound 39] | 88 | 95 | 97 | 98 | 0 | 0 | effective in containing the disease | do not show any symptoms of phytotoxicity | 100 | 100 | 0 | 0 | 
5 | 1.09 | 81.02 | 12.76 | 0 | 2.82 | 0 | 100 | 1.71 | CCN(C)C=Nc1cc(C)c(SCC2CCCCC2)nc1C [Compound 40] | 55 | 80 | 70 | 90 | 0 | 0 | effective in containing the disease | do not show any symptoms of phytotoxicity | 100 | 100 | 0 | 0 | 
